Calls of active or inactive are those of the source.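 Rule for the calls: active = EC50 below 50 µM in the dose-response confirmation; inactive = the rest.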
What follows are compounds tested on CSM14.1 thapsigargin-induced death rescue, ATP luminescence (assay: protection against thapsigargin-triggered cell killing – 384-well, CSM14.1, ATP luminescence, primary screen (AID 1222);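 note: death triggered by thapsigargin at about 15 µM added after 2 h compound pretreatment; cell ATP read after overnight thapsigargin exposure of roughly 18 to 22 hours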).

Question: With `COc1ccc(/C=C/C(=O)N2CCCc3ccccc32)cc1` as the compound, how does the EC50 read?
Answer: > 100 µM (inactive)

Question: For `O=c1[nH]c(-c2ccccn2)nc2sc(-c3ccccc3)cc12`, which EC50 is on record?
Answer: > 100 µM (inactive)

Question: How did the EC50 turn out when `O=C(NC1CCCCC1)C(c1ccc2ncccc2c1)N(Cc1ccc2c(c1)OCO2)C(=O)c1ccc2c(c1)OCCO2` (stereo not given) was run?
Answer: 21.3 µM

Question: For `CC12C(=O)N(c3ccc(C(=O)N4CCOCC4)cc3)C(=O)C1C1c3ccccc3C2c2ccccc21` (stereo not given), which EC50 is on record?
Answer: > 100 µM (inactive)

Question: Which EC50 does the source give for `CCOc1ccccc1NC(=O)C(OC(=O)c1ccccc1NS(=O)(=O)c1cccs1)c1ccccc1` (stereo not given) here?
Answer: > 100 µM (inactive)

Question: For `O=C(NC1CCCCC1)C(c1ccc2ncccc2c1)N(Cc1ccc(F)cc1)C(=O)c1ccc2c(c1)OCCO2` (stereo not given), which EC50 is on record?
Answer: 28.8 µM

Question: How did the EC50 turn out when `Cc1c(Cl)c(C(F)F)nn1CC(=O)NC1C(=O)N2C(C(=O)O)=C(CSc3nnnn3C)CSC12` (stereo not given) was run?
Answer: > 100 µM (inactive)

Question: Which EC50 does the source give for `CC(C)CC(NC(=O)OC(C)(C)C)c1cn([C@@H](Cc2cc3ccccc3[nH]2)C(=O)N2CCN(C(=O)OC(C)(C)C)CC2)nn1` (stereo not given in full) here?
Answer: 62.2 µM (inactive)

Question: `O=C(CSc1nnnn1-c1ccccc1)c1cc2ccccc2oc1=O` was tested. Which EC50 did it give?
Answer: > 100 µM (inactive)

Question: `COc1ccc(-c2oc3ccccc3c(=O)c2OC(C)=O)cc1` was tested. Which EC50 did it give?
Answer: > 100 µM (inactive)

Question: How did the EC50 turn out when `C#CCOCCOCCOCCNc1nc(N2CCN(C(=O)[C@H]([C@@H](C)CC)n3cc(CCCN=C(N)N)nn3)CC2)nc(N2CCN(C(=O)[C@H](CCCCN)n3cc(CCCC)nn3)CC2)n1` was run?
Answer: > 100 µM (inactive)

Question: How did the EC50 turn out when `CCc1ccc(CC2S/C(=C(\C#N)C(C)=O)NC2=O)cc1` (stereo not given) was run?
Answer: > 100 µM (inactive)

Question: Which EC50 does the source give for `COc1ccc(C(=O)NNC(=S)NC(=O)C(C)(C)C)cc1` here?
Answer: > 100 µM (inactive)

Question: `Cc1ccc2cccc(N=Cc3c(C)[nH]n(-c4ccccc4)c3=O)c2n1` was tested. Which EC50 did it give?
Answer: > 100 µM (inactive)

Question: How did the EC50 turn out when `CCC(=O)Nc1nc2ccccc2n1Cc1ccc(Cl)cc1` was run?
Answer: > 100 µM (inactive)

Question: Which EC50 does the source give for `COC(=O)[C@@]1(Cc2ccc(F)cc2)[C@H]2c3cc(C(=O)N4CCCC4)n(CCc4c[nH]c5ccc(OC)cc45)c3C[C@H]2CN1C(=O)c1ccccc1` here?
Answer: 66.2 µM (inactive)

Question: With `C=C(C)CNC(=S)N/N=C/c1ccc([N+](=O)[O-])cc1` as the compound, how does the EC50 read?
Answer: > 100 µM (inactive)

Question: How did the EC50 turn out when `Cc1cccc(C(=O)O/N=C(/c2ccccc2)c2ccncc2)c1` was run?
Answer: > 100 µM (inactive)

Question: Which EC50 does the source give for `Cc1ccc(-c2nnn(CC(=O)N(Cc3cccs3)C(C(=O)NC3CCCC3)c3ccncc3)n2)cc1` (stereo not given) here?
Answer: > 100 µM (inactive)

Question: How did the EC50 turn out when `Cc1cc(CNC(=O)Cc2ccccc2)c2ccccc2n1` was run?
Answer: > 100 µM (inactive)

Question: How did the EC50 turn out when `Clc1ccc(OCCCN2CCCCC2)c(Br)c1` was run?
Answer: > 100 µM (inactive)

Question: With `O=C(Nc1nonc1-c1ccc(Cl)cc1)c1ccccc1` as the compound, how does the EC50 read?
Answer: > 100 µM (inactive)

Question: For `CCOC(=O)C1=C(NC(=S)NC(=O)c2ccccc2)c2ccccc2CC1(C)C`, which EC50 is on record?
Answer: > 100 µM (inactive)

Question: For `Cc1nc(N2CCN(C(=O)c3ccco3)CC2)c2c3c(sc2n1)CC(C)CC3` (stereo not given), which EC50 is on record?
Answer: 58.7 µM (inactive)

Question: `COc1ccc(NC2=Nc3ccccc3N3C2=Nc2c(c(C)nn2-c2ccc(C)cc2)C3c2cccnc2)cc1` (stereo not given) was tested. Which EC50 did it give?
Answer: 92.6 µM (inactive)

Question: Which EC50 does the source give for `O=C(NC1CCCCC1)C(c1ccncc1)N(Cc1ccccc1)C(=O)c1ccc(-c2ccccc2)[nH]1` (stereo not given) here?
Answer: 52.5 µM (inactive)

Question: Which EC50 does the source give for `CCC(=O)NC(=S)NNC(=O)c1ccc(OC)cc1` here?
Answer: > 100 µM (inactive)

Question: How did the EC50 turn out when `Cc1ccc(OCC(=O)NCCC2=CCCCC2)cc1` was run?
Answer: > 100 µM (inactive)

Question: Which EC50 does the source give for `COc1ccc(CN(C(=O)c2cccs2)C(C(=O)NC2CCCCC2)c2ccc3ncccc3c2)cc1` (stereo not given) here?
Answer: 68.5 µM (inactive)

Question: `C#CCOCCOCCOCCNc1nc(N2CCN(C(=O)[C@H](C)n3cc(CCCN=C(N)N)nn3)CC2)nc(N2CCN(C(=O)[C@H](C)n3cc(CCCN=C(N)N)nn3)CC2)n1` was tested. Which EC50 did it give?
Answer: > 100 µM (inactive)

Question: How did the EC50 turn out when `COc1ccc(CN(C(=O)c2ccc3c(c2)OCCO3)C(C(=O)NC2CCCCC2)c2ccc3ncccc3c2)cc1` (stereo not given) was run?
Answer: 31.4 µM

Question: With `O=S(=O)(c1ccc2c(c1)OCCO2)N1CCN(c2nc(-c3cccnc3)nc3ccccc23)CC1` as the compound, how does the EC50 read?
Answer: 76.4 µM (inactive)

Question: Which EC50 does the source give for `COC(=O)c1ccc(NC(=O)C2CC(=O)N(c3ccc(C)cc3)C2)cc1` (stereo not given) here?
Answer: > 100 µM (inactive)

Question: With `CCN1CCc2c(OCC(=O)N3N=C(c4cccs4)CC3c3ccc(F)cc3)cccc2C1=O` (stereo not given) as the compound, how does the EC50 read?
Answer: 42 µM

Question: `COc1ccc(C(=O)C(OC(=O)c2ccccc2)c2ccccc2)cc1` (stereo not given) was tested. Which EC50 did it give?
Answer: 66.5 µM (inactive)

Question: Which EC50 does the source give for `CC1=NN(/C(=N\c2nnc(C)s2)Nc2ccccc2)[C@H](c2ccc(C)cc2)S1` here?
Answer: > 100 µM (inactive)

Question: Which EC50 does the source give for `CCCCC(=O)NC(=S)NNC(=O)c1ccc(Cl)cc1Cl` here?
Answer: > 100 µM (inactive)

Question: For `CC(C)C(=O)N1CCC(CN=Cc2c(O)n(C3CCCCC3)c(=O)n(C3CCCCC3)c2=O)CC1`, which EC50 is on record?
Answer: 70.3 µM (inactive)

Question: `CCCCCCn1c(O)c(/C=C2\C=NN=C2c2ccccc2)sc1=S` was tested. Which EC50 did it give?
Answer: > 100 µM (inactive)

Question: How did the EC50 turn out when `O=c1c2c(-c3ccccc3)csc2ncn1/N=C/c1cccc([N+](=O)[O-])c1O` was run?
Answer: > 100 µM (inactive)

Question: `Cc1ccc2c(C(=O)N3CCN(c4ccccc4)CC3)cc(-c3cccnc3)nc2c1C` was tested. Which EC50 did it give?
Answer: 81.3 µM (inactive)

Question: How did the EC50 turn out when `CCOc1cc(/C=N/NC(=O)COc2cccc(C)c2)ccc1OC(=O)c1cccs1` was run?
Answer: > 100 µM (inactive)

Question: `CNC(=O)c1c(NC(=O)c2nc3ccccc3s2)sc2c1CCC2` was tested. Which EC50 did it give?
Answer: > 100 µM (inactive)

Question: For `CCN(CC)c1ccc(/C=C(/C#N)c2nc3ccc(C)cc3[nH]2)c(OC(C)C)c1`, which EC50 is on record?
Answer: > 100 µM (inactive)

Question: How did the EC50 turn out when `O=C(c1ccc(N2CCCC2=O)cc1)N1CCCCCC1` was run?
Answer: > 100 µM (inactive)

Question: `CCN1C(=O)/C(=C/c2ccc3c(c2)CCN3CCCCl)C(=O)NC1=S` was tested. Which EC50 did it give?
Answer: 44.7 µM

Question: How did the EC50 turn out when `CN1CCC(O)(c2ccccc2)C(C(=O)c2ccccc2)C1` (stereo not given) was run?
Answer: > 100 µM (inactive)

Question: For `COc1ccccc1Cn1c(=S)[nH]c2cc(C(=O)NCC3CCCO3)ccc2c1=O` (stereo not given), which EC50 is on record?
Answer: > 100 µM (inactive)

Question: How did the EC50 turn out when `CCCCC(=O)NNC(=S)NC(=O)c1ccc(C)cc1` was run?
Answer: > 100 µM (inactive)

Question: How did the EC50 turn out when `COCCn1c(C)cc(C(=O)COC(=O)CCN2C(=O)c3ccccc3C2=O)c1C` was run?
Answer: > 100 µM (inactive)

Question: With `CC12COC3(P(=O)(c4ccccc4)c4ccccc4)CC1CCC23CP(=O)(c1ccccc1)c1ccccc1` (stereo not given) as the compound, how does the EC50 read?
Answer: 40.2 µM

Question: Which EC50 does the source give for `CCO[C@@H]1OC(C(=O)N2CCN(Cc3ccc4c(c3)OCO4)CC2)=C[C@H](c2csc3ccccc23)[C@H]1CCCO` here?
Answer: 86.1 µM (inactive)

Question: How did the EC50 turn out when `O=C(NC1CCCCC1)C(c1ccc2ncccc2c1)N(Cc1ccccc1)C(=O)c1ccc2c(c1)OCCO2` (stereo not given) was run?
Answer: 32.3 µM

Question: How did the EC50 turn out when `C/C(=N\NC(=S)Nc1cccc(C)c1)c1ccco1` was run?
Answer: > 100 µM (inactive)

Question: With `CCCC1=[N+](CC(C)=O)CCn2c(C)ccc21` as the compound, how does the EC50 read?
Answer: > 100 µM (inactive)

Question: Which EC50 does the source give for `COc1ccc(C2=C/C(=C\c3cccc(OC(C)=O)c3)C(=O)O2)cc1` here?
Answer: > 100 µM (inactive)

Question: Which EC50 does the source give for `COc1ccc(CNC(=O)CCCn2nc(C)c([N+](=O)[O-])c2C)cc1OC` here?
Answer: > 100 µM (inactive)

Question: `CC[C@@H](C)[C@@H](C(=O)N1CCN(C(=O)OC(C)(C)C)CC1)n1cc(CCCN=C(NC(=O)OC(C)(C)C)NC(=O)OC(C)(C)C)nn1` was tested. Which EC50 did it give?
Answer: 58.5 µM (inactive)

Question: Which EC50 does the source give for `O=C(Nc1nc(-c2cc(F)ccc2F)cs1)c1ccccn1` here?
Answer: > 100 µM (inactive)

Question: With `C#CCOCCOCCOCCNc1nc(N2CCN(C(=O)[C@H](CCCCN)n3cc(CCCC)nn3)CC2)nc(N2CCN(C(=O)[C@H](CCCCN)n3cc(CCCC)nn3)CC2)n1` as the compound, how does the EC50 read?
Answer: > 100 µM (inactive)
